Like-named read-outs stand apart in the source and are kept apart here.
How the values were obtained:
[1] = Solubility of Nystatin in aqueous γ-CD solutions (spectrophotometric); format: physicochemical; settings: for Nystatinkonzentration: 37 °C, 10 min schütteln
Experimental: Ähnlich wie im Falle des Flavofungins wurde auch für Nystatin die Löslichkeit in γ-CD-Lösungen unterschiedlicher Konzentration ermittelt. Die verwendeten wäßrigen γ-CD-Lösungen hatten Konzentrationen von 0, 1, 2,5, 4, 5, 6, 7, 8, 9, 10 und 15 %. Pro ml wurden 20 mg Nystatin zu gesetzt. Die Lösungen wurden bei 37 °C 10 Minuten lang geschüttelt, dann wurde ihr Nystatingehalt spektrophotometrisch bestimmt. Ähnlich wie bei Flavofungin wurde gefunden, daß die Löslichkeit des Nystatins in wäßrigen γ-CD-Lösungen ansteigt und in 5 %iger γ-CD-Lösung etwa das 25fache, in 10 %iger γ-CD-Lösung etwa das 40fache der ursprünglichen Wasserlöslichkeit beträgt. Die Meßergebnisse sind in der Tabelle 2 zusammengestellt.
Die aus dem anfänglich linearen Abschnitt der bei 37 °C aufgenommen Löslichkeitsisotherme berechnete scheinbare Stabilitätskonstante des Komplexes beträgt etwa 500.

Candida albicans = assay: Biological potency of Nystatin, agar diffusion method; format: cell-based
Excerpt: Die vorhergehenden Beispiele beweisen, daß die Polyenantibiotika mit γ-Cyclodextrin Einschlußkomplexe bilden und dadurch ihre Stabilität und Wasserlöslichkeit bedeutend steigt. Entscheidend ist jedoch, ob auch die antifungale Wirkung geblieben ist. Um diese Frage zu beantworten, wurde die antifungale Wirkung der auf unterschiedliche Weise hergestellten Komplexe sowohl sofort nach der Herstellung wie auch nach Lagerung unter Bedingungen, unter denen der nicht durch Komplexbildung geschützte Wirkstoff bereits beträchtliche Aktivitätseinbußen erleidet, untersucht. • a) Flavofungin-γ-Cyclodextrin-Komplex Die antifungale Wirkung der wäßrigen Lösung dieses Komplexes wurde an 6 Spaltpilzen und 13 Fadenpilzen untersucht. Die Ergebnisse sind in der Tabelle 7 zusammengefaßt. Auf Flavofungin bezogen war die minimale Hemmkonzentration in jedem Falle 10-25 µg/ml, was der Wirksamkeit des nicht komplexgebundenen Wirkstoffes entspricht. Es ist besonders bemerkenswert, daß die Substanz auch gegen phytopathogene Fusarien wirkt, d.h. eine Anwendung gegen pilzliche Pflanzenschädlinge begründet ist. Der komplexgebundene Wirkstoff wirkt in der gleichen Konzentration wie Flavofungin. Die Untersuchungenwurden mit der Agardiffusionsmethode vorgenommen. Der Komplex hat den Vorteil, daß zum Bereiten der Lösungen keine organischen Lösungsmittel (DMF bzw. DMSO) erforderlich sind. […]

Weibliche CFY-Ratten = assay: Mortality after subcutaneous administration in rats; format: in vivo; settings: subcutan, 150 mg/kg, observation one week
Excerpt: • a) Die Resorption von Nystatin aus per os verabreichtem Nystatin-γ-CD-Komplex Die Resorption des Wirkstoffes wurde an Mäusen, an einem durch intravenöse Applikation einer Suspension von Candida albicans hervorgerufenen Sepsismodell untersucht. Die Sepsis verursachte innerhalb von 2-3 Tagen 100 %ige Mortalität. Den Versuchstieren wurde per os gemäß Beispiel 3 hergestellte, 8 % Nystatin enthaltende Komplex verabreicht. In einem Parallelversuch wurde Nystatin intravenös appliziert. Für beide Gruppen wurde die auf die unbehandelte Kontrolle bezogene Verlängerung der Überlebensdauer ermittelt. [formula] Wenn man diejenigen in Form des Komplexes per os verabreichten Nystatindosen mit denjenigen i.v. applizierten Nystatindosen vergleicht, die eine etwa gleiche Verlängerung der Überlebensdauer bewirkten (Tabelle 9, letzte Spalte),so läßt sich errechnen, daß aus dem Komplex durchschnittlich 6,2 % des Wirkstoffes in die Blutbahn gelangten. Bei den höchsten Dosen (i.v. 1,56 mg/kg, p.o. 25 mg/kg) ist das Zurückfallen der Überlebensdauer bereits auf die schwache Toxizität des Nystatins zurückzuführen. • b) Die Resorption von Nystatin aus subcutan appliziertem Nystatin-γ-CD-Komplex Weibliche CFY-Ratten eines durchschnittlichen Gewichtes von 180 g wurden mit Nystatin, mit Nystatin-γ-CD-Komplex (Wirkstoffgehalt9 8 %) beziehungsweise mit γ-CD behandelt. […]

[2] = cited from earlier work
[3] = per os; cited from earlier work
[4] = tested on: aus menschlichem Blut hergestellten Suspensionen roter Blutkörperchen; settings: literature value; cited from earlier work

C[C@@H]1[C@H](O)[C@@H](C)/C=C/C=C/CC/C=C/C=C/C=C/C=C/C(O[C@H]2O[C@H](C)[C@@H](O)[C@H](N)[C@@H]2O)CC2O[C@](O)(CC(O)C(O)CCC(O)CC(O)CC(O)CC(=O)O[C@H]1C)CC(O)C2C(=O)O (stereo partly drawn) [Nystatin]
Löslichkeit relative to ursprüngliche Wasserlöslichkeit ([1]; 5 %ige γ-CD-Lösung): ~25 fache | Löslichkeit relative to ursprüngliche Wasserlöslichkeit ([1]; 10 %ige γ-CD-Lösung): ~40 fache | Nystatinkonzentration ([1]; γ-CD-Konzentration 0 %): 0,20 mg/ml | Nystatinkonzentration ([1]; γ-CD-Konzentration 1 %): 1,30 mg/ml | Nystatinkonzentration ([1]; γ-CD-Konzentration 2,5 %): 2,36 mg/ml | Nystatinkonzentration ([1]; γ-CD-Konzentration 4 %): 3,95 mg/ml | Nystatinkonzentration ([1]; γ-CD-Konzentration 5 %): 4,70 mg/ml | Nystatinkonzentration ([1]; γ-CD-Konzentration 6 %): 5,50 mg/ml | Nystatinkonzentration ([1]; γ-CD-Konzentration 7 %): 6,30 mg/ml | Nystatinkonzentration ([1]; γ-CD-Konzentration 8 %): 7,20 mg/ml | Nystatinkonzentration ([1]; γ-CD-Konzentration 9 %): 8,10 mg/ml | Nystatinkonzentration ([1]; γ-CD-Konzentration 10 %): 8,95 mg/ml | Nystatinkonzentration ([1]; γ-CD-Konzentration 15 %): 8,20 mg/ml | biologische Aktivität (Candida albicans): 5033 E/mg | biologische Aktivität after treatment without γ-CD (Candida albicans; base substance treated as in Beispiel 5 (40 °C, 24 Stunden in water, lyophilised) without γ-CD): wesentlich schlechter | Mortalität (animals that died) (Weibliche CFY-Ratten): kein einziges | Löslichkeit ([2]; 70 %iges wäßriges Isopropanol): 2,2 mg/ml | Löslichkeit ([2]; 75 %-iges wäßriges Äthanol): 4 mg/mL | maximale Löslichkeit ([2]; Methanol): 9,2-11,2 mg/ml | Löslichkeit ([2]; reines Isopropanol): 0,62 mg/ml | Löslichkeit ([2]; reines Äthanol): 0,55 mg/ml | Löslichkeit, increase ([2]; zusammen mit Polyvinylpyrrolidon ausgefällt (coprecipitate)): 8-10 mal | Blutspiegel [3]: überhaupt nicht meßbar | EH₅₀ (concentration for 50 % haemolysis) [4]: 50 µg/mL

— patent EP0147851B1, “Water soluble forms of polyene antibiotics, and process for preparing them” (priority 1983, dated 1985)
